The test system of series [1] is hTERT. Put plainly: Secreted alkaline phosphatase (SEAP) assay, PhTERT-SEAP (H1299). Type of series: cell-based. As to conditions: Homo sapiens, 24 hours; for activity at 1 µM: NCI-H1299, Conc. 1 μM, read-out: Relative SEAP activity (%); for activity at 10 µM: NCI-H1299, Conc. 10 μM; for activity at 10 µM / activity at 100 µM: read-out: Relative SEAP activity (%) (converted); for activity at 100 µM: NCI-H1299, Conc. 100 μM. Here is the method: H1299 were grown in RPMI 1640 media supplemented with 10% fetal bovine serum, 100 units/mL penicillin and […] streptomycin in a humidified atmosphere with 5% CO2 at 37° C. Culture media were changed every three days. To establish stable cell lines that the expression of hTERT could be monitored by a reporter system, a about 3.3 kbp DNA fragment ranging from −3338 to +1 bp of the hTERT gene (hTERT promoter, PhTERT) was subcloned upstream to a secreted alkaline phosphatase gene (SEAP) and transfected into H1299 by electroporation. The stable clones were selected using G418. The stable clones derived from H1299 were cultured using conditions that are similar to their parental cells.
Secreted alkaline phosphatase was used as the reporter system to monitor the transcriptional activity of hTERT. Here, about 10^4 cells each were grown in 96-well plates and incubated at 37° C. for 24 hours and changed with fresh media. Varying amounts of drugs were added and cells were incubated for another 24 hours. Culture media were collected and heated at 65° C. for 10 min to inactivate heat-labile phosphatases. An equal amount of SEAP buffer (2 M diethanolamine, 1 mM MgCl2, and 20 mM L-homoarginine) was added to the media and p-nitrophenyl phosphate was added to a final concentration of 12 mM. Absorptions at 405 nm were taken, and the rate of absorption increase is determined (the increasing rate of absorbance at 405 nm was used to represent the activity of SEAP).

The subject of series [2] is H1299. Put plainly: MTT assay, PhTERT-SEAP (H1299). Type of series: cell-based, human. The settings on record: H1299; SEAP and MTT analysis. Here is the method:
(§1) Further, cells were subjected to MTT assay to compare the relative toxicity or effect of each compound on cell proliferation and activity.
(§2) The above-described cells are cultured in a 96-well plate, to which was added with 25 μl MTT solution, and cultured in a 37° C. carbon dioxide incubator for 4 hours. Then, 100 μl Lysis buffer is added and incubated in a 37° C. carbon dioxide incubator overnight. An ELISA reader (Bio-Rad Model 450) is used to read optical density (O.D.) at 550 nm.
(Tetrazolium assays rely on reduction of a dye to a coloured formazan, in cell work by metabolically active cells.)

Series [3] can be described thus: MTT assay, PhTERT-SEAP (H1299). Format: cell-based, human. The settings on record: human, H1299 cells carrying the PhTERT-SEAP reporter, PhTERT-SEAP (H1299); for viability at 1 μM: Conc. 1 μM, read-out: Relative MTT viability (%); for viability at 10 μM: Conc. 10 μM; for viability at 10 μM / viability at 100 μM: read-out: Relative MTT viability (%) (converted); for viability at 100 μM: Conc. 100 μM. Here is the method: as §1, §2

From US8530465B2, “1, 2-disubstituted amido-anthraquinone derivatives, preparation method and application thereof” (National Defense Medical Center, priority 2010, dated 2013) come the findings set out here.

The structures appear in SMILES notation.

Broadly, the melting point is the temperature, or range, at which the solid turns liquid. For orientation: viability means a read-out of living cells in per cent, often relative to untreated cells. For `O=C(CCl)Nc1ccc2c(c1NC(=O)CCl)C(=O)c1ccccc1C2=O` [CC-01, 1,2-bis-(chloroacetamido)-anthraquinone], the melting point fell in the range of 254 to 255 °C. Further, in series [1], the activity at 1 µM stood at 15.9 ± 1.06%, the activity at 10 µM was 13.7% and the activity at 100 µM is 13.7%. In addition, the “cell toxicity / inhibitory activity compared with mitoxantrone and doxorubicin” value in series [2] is “higher cell toxicity activity than mitoxantrone and doxorubicin”. Besides, in series [3], the viability at 1 μM was 8.1 ± 3.87%.

As to `Cc1ccc(C(=O)Nc2c(NC(=O)CN3CCN(c4ccccc4)CC3)ccc3c2C(=O)c2ccccc2C3=O)cc1` [CC-45, 1-(4-methylbenzamido)-2-[2-(4-phenylpiperazino)acetylamino]-anthraquinone], the melting point lay in the range of 270 to 271 °C. Moreover, in series [1], the activity at 1 µM amounted to 93.2 ± 4.68%, the activity at 10 µM is 88.2% and the activity at 100 µM is 15.9%. In series [3], the viability at 1 μM came to 80.8 ± 6.98%, the viability at 10 μM is 77% and the viability at 100 μM is 23.2%.

`Cc1ccc(C(=O)Nc2c(NC(=O)CN3CCN(c4ccccc4F)CC3)ccc3c2C(=O)c2ccccc2C3=O)cc1` [CC-46, 1-(4-methylbenzamido)-2-[2-[4-(2-fluorophenyl)piperazino]acetylamino]-anthraquinone] had a melting point of 228 to 229 °C. Moreover, in series [1], the activity at 1 µM was found to be 85 ± 10.8%, the activity at 10 µM was 76.2% and the activity at 100 µM is 20.1%. In series [3], the viability at 1 μM is 79.8 ± 9.65%, the viability at 10 μM is 68.7% and the viability at 100 μM is 40.8%.

With `Cc1ccc(C(=O)Nc2c(NC(=O)CN3CCN(c4ccccc4C#N)CC3)ccc3c2C(=O)c2ccccc2C3=O)cc1` [CC-47, 1-(4-methylbenzamido)-2-[2-[4-(2-cyanophenyl)piperazino]acetylamino]-anthraquinone], the melting point lay within 238 to 239 °C. In series [1], the activity at 1 µM was 81 ± 9.56%, the activity at 10 µM was 74.2% and the activity at 100 µM is 20.8%. Further, in series [3], the viability at 1 μM came out at 72 ± 11.1%, the viability at 10 μM was 60.1% and the viability at 100 μM was 48.2%.

With `COc1ccccc1N1CCN(CC(=O)Nc2ccc3c(c2NC(=O)c2ccc(C)cc2)C(=O)c2ccccc2C3=O)CC1` [CC-48, 1-(4-methylbenzamido)-2-[2-[4-(2-methoxyphenyl)piperazino]acetylamino]-anthraquinone], the melting point is 215 to 216 °C. Further, in series [1], the activity at 1 µM amounted to 83.3 ± 2.81%, the activity at 10 µM was 68.3% and the activity at 100 µM was 12.2%. Besides, in series [3], the viability at 1 μM worked out at 76.4 ± 3.95%, the viability at 10 μM was 78.3% and the viability at 100 μM was 22.7%.

As for `Cc1ccc(C(=O)Nc2c(NC(=O)CN3CCN(c4ccccn4)CC3)ccc3c2C(=O)c2ccccc2C3=O)cc1` [CC-49, 1-(4-methylbenzamido)-2-[2-[4-(2-pyridyl)piperazino]acetylamino]-anthraquinone], the melting point lay in the range of 258 to 259 °C. Besides, in series [1], the activity at 1 µM was determined as 97.1 ± 7.43%, the activity at 10 µM was 64.3% and the activity at 100 µM was 9.96%. In addition, in series [3], the viability at 1 μM was 105 ± 3.65%, the viability at 10 μM is 100% and the viability at 100 μM is 6.46%.

Turning to `Cc1ccc(C(=O)Nc2c(NC(=O)CN3CCN(c4ncccn4)CC3)ccc3c2C(=O)c2ccccc2C3=O)cc1` [CC-50, 1-(4-methylbenzamido)-2-[2-[4-(2-pyrimidinyl)piperazino]acetylamino]-anthraquinone], the melting point was in the range of 267 to 268 °C. Further, in series [1], the activity at 1 µM worked out at 87.1 ± 7.97%, the activity at 10 µM is 79.5% and the activity at 100 µM is 20%. Also, in series [3], the viability at 1 μM stood at 102 ± 5.76%, the viability at 10 μM was 91.5% and the viability at 100 μM is 59%.
